The results in this text go back to US11712438B2, “Phenyl derivatives as PGE2 receptor modulators” (IDORSIA PHARMACEUTICALS LTD, priority 2017, dated 2023).

Among the targets are PTRGER4 (EP4) (Homo sapiens, UniProt P35408); EP4 (Homo sapiens, UniProt P35408); PTGER2 (EP2) (Homo sapiens, UniProt P43116); EP2 (Homo sapiens, UniProt P43116).
Holding throughout (test): cell-based

Sequence of EP2 (P43116 whole entry): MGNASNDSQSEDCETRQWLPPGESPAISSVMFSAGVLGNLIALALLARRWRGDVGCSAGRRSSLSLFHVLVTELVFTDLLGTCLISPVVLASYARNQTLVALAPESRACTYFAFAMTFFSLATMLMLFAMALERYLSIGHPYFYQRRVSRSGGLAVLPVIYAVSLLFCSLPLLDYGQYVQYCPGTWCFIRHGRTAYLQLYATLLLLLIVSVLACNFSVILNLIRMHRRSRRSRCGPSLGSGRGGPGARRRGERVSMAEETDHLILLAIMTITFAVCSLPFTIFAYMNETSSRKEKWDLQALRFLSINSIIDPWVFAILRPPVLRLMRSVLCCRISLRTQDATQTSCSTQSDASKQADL
Sequence of PTGER2 (EP2) (P43116 whole entry): as above
Sequence of PTRGER4 (EP4) (P35408 whole entry): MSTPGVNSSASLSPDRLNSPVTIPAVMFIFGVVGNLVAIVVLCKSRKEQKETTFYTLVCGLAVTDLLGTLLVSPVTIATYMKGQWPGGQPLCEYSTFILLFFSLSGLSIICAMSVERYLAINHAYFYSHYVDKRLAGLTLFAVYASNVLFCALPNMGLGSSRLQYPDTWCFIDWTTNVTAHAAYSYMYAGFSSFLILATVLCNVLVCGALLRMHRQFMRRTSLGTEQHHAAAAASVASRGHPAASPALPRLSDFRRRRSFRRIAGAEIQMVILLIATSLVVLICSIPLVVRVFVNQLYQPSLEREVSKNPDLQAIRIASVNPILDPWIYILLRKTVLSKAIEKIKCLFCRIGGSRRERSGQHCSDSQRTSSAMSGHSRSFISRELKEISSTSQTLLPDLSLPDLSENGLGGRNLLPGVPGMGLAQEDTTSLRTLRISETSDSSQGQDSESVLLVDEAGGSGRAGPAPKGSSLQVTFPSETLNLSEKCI
Sequence of EP4 (P35408 whole entry): as above

For `CCOc1cc(-c2cc(NCCc3cc(F)c(Br)cc3C)ncn2)sc1-c1noc(=O)[nH]1` [Example 111, 3-(5-{6-[2-(4-Bromo-5-fluoro-2-methyl-phenyl)-ethylamino]-pyrimidin-4-yl}-3-ethoxy-thiophen-2yl)-[1,2,4]oxadiazol-5(4H)-one], the concentration for half-maximal inhibition (IC50) (usually the point on the concentration scale where inhibition reaches its midpoint) stood at 6 nM at PTRGER4 (EP4), 26 nM against EP4, 31 nM against PTGER2 (EP2) and 137 nM on EP2.

For the molecule `CCCCOc1cc(-c2cc(NCCc3c(F)cc(Br)cc3F)ncn2)cc(F)c1C(=O)O` [Example 167, 4-{6-[2-(4-Bromo-2,6-difluoro-phenyl)-ethylamino]-pyrimidin-4-yl}-2-butoxy-6-fluoro-benzoic acid], the concentration for half-maximal inhibition (IC50) on PTRGER4 (EP4) amounted to 431 nM; at EP4 it was 1080 nM; on PTGER2 (EP2) it was 42 nM; on EP2, 198 nM.

On to `O=c1[nH]c(-c2ccc(-c3cc(NCCc4c(F)cc(Br)cc4F)ncn3)cc2)no1` [Example 235, 3-(4-{6-[2-(4-Bromo-2,6-difluoro-phenyl)-ethylamino]-pyrimidin-4-yl}-phenyl)-[1,2,4]oxadiazol-5(4H)-one], for which the IC50 against PTRGER4 (EP4) is 89 nM; at EP4 it was 149 nM; against PTGER2 (EP2), 43 nM; at EP2, 203 nM.

For the molecule `CCOc1cc(-c2cc(NCCc3c(F)cc(Br)cc3F)ncn2)ccc1C(=O)O` [Example 180, 4-{6-[2-(4-Bromo-2,6-difluoro-phenyl)-ethylamino]-pyrimidin-4-yl}-2-ethoxy-benzoic acid], the concentration for half-maximal inhibition (IC50) against PTRGER4 (EP4) amounted to 674 nM; against EP4 it was 221 nM; on PTGER2 (EP2), 119 nM; against EP2 it was 52 nM.

Take `CCOc1cc(-c2cc(NCCc3ccc(OC)cc3OC)ncn2)sc1-c1noc(=O)[nH]1` [Example 116, 3-(5-{6-[2-(2,4-Dimethoxy-phenyl)-ethylamino]-pyrimidin-4-yl}-3-ethoxy-thiophen-2-yl)-[1,2,4]oxadiazol-5(4H)-one]: the IC50 was 5 nM against PTRGER4 (EP4), 8 nM at EP4, 10 nM on PTGER2 (EP2) and 14 nM against EP2.

As to `CCOc1cc(-c2cc(NCCc3c(F)cc(Br)cc3F)ncn2)sc1C(=O)NS(N)(=O)=O` [Example 155, 5-(6-((4-Bromo-2,6-difluorophenethyl)amino)pyrimidin-4-yl)-3-ethoxy-N-sulfamoylthiophene-2-carboxamide], the half-inhibitory concentration (IC50) at PTRGER4 (EP4) stood at 35 nM; against EP4, 62 nM; at PTGER2 (EP2), 12 nM; against EP2, 20 nM.

Regarding `CCOc1cc(-c2cc(NCCc3c(F)cc(Br)cc3F)ncn2)sc1-n1nn[nH]c1=O` [Example 294, 1-(5-{6-[2-(4-Bromo-2,6-difluoro-phenyl)-ethylamino]-pyrimidin-4-yl}-3-ethoxy-thiophen-2-yl)-1,4-dihydro-tetrazol-5-one], the IC50 against PTRGER4 (EP4) was found to be 18 nM; on EP4 it was 22 nM; on PTGER2 (EP2), 27 nM; against EP2, 47 nM.

`CCOc1cc(C(F)(F)F)ccc1CCNc1cc(-c2cc(OCC)c(-c3noc(=O)[nH]3)s2)ncn1` [Example 90, 3-(3-Ethoxy-5-{6-[2-(2-ethoxy-4-trifluoromethyl-phenyl)-ethylamino]-pyrimidin-4-yl}-thiophen-2yl)-[1,2,4]oxadiazol-5(4H)-one]: the IC50 against PTRGER4 (EP4) is 3 nM; at EP4, 10 nM; at PTGER2 (EP2) it was 26 nM; at EP2, 24 nM.

Consider `CCOc1cc(-c2cc(NCCc3ccc(Br)cc3)ncn2)ccc1-c1noc(=O)[nH]1` [Example 15, 3-(4-{6-[2-(4-Bromo-phenyl)-ethylamino]-pyrimidin-4-yl}-2-ethoxy-phenyl)-[1,2,4]oxadiazol-5(4H)-one], for which the half-inhibitory concentration (IC50) against PTRGER4 (EP4) is 56 nM; against EP4, 42 nM; against PTGER2 (EP2), 368 nM; on EP2, 198 nM.

Consider `O=C(O)c1cccc2cc(-c3cc(NCCc4c(F)cc(Br)cc4F)ncn3)[nH]c12` [Example 263, 2-{6-[2-(4-Bromo-2,6-difluoro-phenyl)-ethylamino]-pyrimidin-4-yl}-1H-indole-7-carboxylic acid], for which the IC50 at PTRGER4 (EP4) is 73 nM; on EP4, 73 nM; at PTGER2 (EP2) it was 31 nM; on EP2 it was 167 nM.

Take `CCCc1cc(-c2cc(NCCc3ccc(C(F)(F)F)cc3OCC)ncn2)ccc1C(=O)O` [Example 213, 4-{6-[2-(2-Ethoxy-4-trifluoromethyl-phenyl)-ethylamino]-pyrimidin-4-yl}-2-propyl-benzoic acid]: the IC50 came out at 217 nM against PTRGER4 (EP4), 300 nM against EP4, 71 nM against PTGER2 (EP2) and 184 nM against EP2.

Take `CCOc1cc(-c2cc(NCCc3ccc(Br)cc3F)ncn2)ccc1C(=O)O` [Example 21, 4-{6-[2-(4-Bromo-2-fluoro-phenyl)-ethylamino]-pyrimidin-4-yl}-2-ethoxy-benzoic acid]: the IC50 is 779 nM against PTRGER4 (EP4), 80 nM on EP4, 248 nM at PTGER2 (EP2) and 193 nM on EP2.

Turning to `O=C(O)Cc1ccc(-c2cc(NCCc3c(F)cc(Br)cc3F)ncn2)cc1OC(F)F` [Example 252, (4-{6-[2-(4-Bromo-2,6-difluoro-phenyl)-ethylamino]-pyrimidin-4-yl}-2-difluoromethoxy-phenyl)-acetic acid], the IC50 was found to be 484 nM against PTRGER4 (EP4), 959 nM at EP4, 214 nM on PTGER2 (EP2) and 1910 nM against EP2.

Take `CCOc1cc(-c2cc(NCCc3ccc(Br)c(C)c3)ncn2)sc1-c1noc(=O)[nH]1` [Example 113, 3-(5-{6-[2-(4-Bromo-3-methyl-phenyl)-ethylamino]-pyrimidin-4-yl}-3-ethoxy-thiophen-2-yl)-[1,2,4]oxadiazol-5(4H)-one]: the concentration for half-maximal inhibition (IC50) turned out to be 3 nM against PTRGER4 (EP4), 29 nM on EP4, 47 nM against PTGER2 (EP2) and 113 nM at EP2.

For the molecule `CCOc1cc(-c2cc(NCCc3ccc(C(F)(F)F)cc3OC(F)F)ncn2)sc1C(=O)O` [Example 219, 5-{6-[2-(2-Difluoromethoxy-4-trifluoromethyl-phenyl)-ethylamino]-pyrimidin-4-yl}-3-ethoxy-thiophene-2-carboxylic acid], the 50% inhibitory concentration (IC50) at PTRGER4 (EP4) was 96 nM; on EP4, 42 nM; against PTGER2 (EP2), 302 nM; at EP2 it was 332 nM.

In the case of `CCOc1cc(-c2cc(NCCc3c(F)cc(Br)cc3F)ncn2)sc1CCC(=O)O` [Example 44, 3-(5-{6-[2-(4-Bromo-2,6-difluoro-phenyl)-ethylamino]-pyrimidin-4-yl}-3-ethoxy-thiophen-2yl)-propionic acid], the IC50 against PTRGER4 (EP4) worked out at 62 nM; against EP4 it was 38 nM; against PTGER2 (EP2), 44 nM; at EP2 it was 120 nM.

Take `CCOc1cc(-c2cc(NCCc3c(F)cc(Br)cc3OC)ncn2)sc1-c1noc(=O)[nH]1` [Example 87, 3-(5-{6-[2-(4-Bromo-2-fluoro-6-methoxy-phenyl)-ethylamino]-pyrimidin-4-yl}-3-ethoxy-thiophen-2yl)-[1,2,4]oxadiazol-5(4H)-one]: the IC50 was 5 nM at PTRGER4 (EP4), 17 nM on EP4, 11 nM on PTGER2 (EP2) and 28 nM on EP2.

On to `CCOc1cc(-c2cc(NCCc3ccc(Br)c(OC)c3)ncn2)sc1-c1noc(=O)[nH]1` [Example 115, 3-(5-{6-[2-(4-Bromo-3-methoxy-phenyl)-ethylamino]-pyrimidin-4-yl}-3-ethoxy-thiophen-2yl)-[1,2,4]oxadiazol-5(4H)-one], for which the IC50 came out at 16 nM against PTRGER4 (EP4), 12 nM against EP4, 44 nM at PTGER2 (EP2) and 51 nM on EP2.

As to `CCOc1cc(C(F)(F)F)ccc1CCNc1cc(-c2ccc(C(=O)O)c(OCC)c2)ncn1` [Example 211, 2-Ethoxy-4-{6-[2-(2-ethoxy-4-trifluoromethyl-phenyl)-ethylamino]-pyrimidin-4-yl}-benzoic acid], the IC50 against PTRGER4 (EP4) came out at 126 nM; on EP4, 170 nM; on PTGER2 (EP2) it was 106 nM; on EP2, 148 nM.

On to `CCNc1cc(-c2cc(NCCc3c(F)cc(Br)cc3F)ncn2)ccc1C(N)=O` [Example 217, 4-{6-[2-(4-Bromo-2,6-difluoro-phenyl)-ethylamino]-pyrimidin-4-yl}-2-ethylamino-benzamide], for which the half-maximal inhibitory concentration (IC50) came out at 29 nM against PTRGER4 (EP4), 79 nM against EP4, 20 nM at PTGER2 (EP2) and 134 nM on EP2.

In the case of `CCOc1cc(-c2cc(NCCc3ccc(Cl)cc3Cl)ncn2)sc1C(=O)O` [Example 66, 5-{6-[2-(2,4-Dichloro-phenyl)-ethylamino]-pyrimidin-4-yl}-3-ethoxy-thiophene-2-carboxylic acid], the IC50 was found to be 133 nM on PTRGER4 (EP4), 53 nM against EP4, 16 nM against PTGER2 (EP2) and 27 nM at EP2.

Consider `CCCCOc1cc(-c2cc(NCCc3c(F)cc(Br)cc3F)ncn2)ccc1C(=O)O` [Example 43, 4-{6-[2-(4-Bromo-2,6-difluoro-phenyl)-ethylamino]-pyrimidin-4-yl}-2-butoxy-benzoic acid], for which the IC50 against PTRGER4 (EP4) stood at 208 nM; on EP4, 514 nM; against PTGER2 (EP2), 55 nM; against EP2 it was 66 nM.

As to `CCc1cc(-c2cc(NCCc3c(F)cc(Br)cc3F)ncn2)sc1C(=O)O` [Example 29, 5-{6-[2-(4-Bromo-2,6-difluoro-phenyl)-ethylamino]-pyrimidin-4-yl}-3-ethyl-thiophene-2-carboxylic acid], the 50% inhibitory concentration (IC50) against PTRGER4 (EP4) turned out to be 20 nM; against EP4, 12 nM; against PTGER2 (EP2), 29 nM; against EP2, 23 nM.

In the case of `CCOc1cc(-c2cc(NCCc3ccc(Br)cc3)nc(C)n2)sc1-c1noc(=O)[nH]1` [Example 157, 3-(5-{6-[2-(4-Bromo-phenyl)-ethylamino]-2-methyl-pyrimidin-4-yl}-3-ethoxy-thiophen-2-yl)-[1,2,4]oxadiazol-5(4H)-one], the IC50 is 57 nM at PTRGER4 (EP4), 34 nM against EP4, 64 nM against PTGER2 (EP2) and 99 nM at EP2.
